{"source": "patent US20160229835A1", "about": "“NOVEL PYRIDYLOXYACETYL TETRAHYDROISOQUINOLINE COMPOUNDS USEFUL AS NAMPT INHIBITORS” (ELI LILLY AND COMPANY, priority 2013, published 2016)", "system": "A2780 Cancer Cells", "assay": "LC-MS Analysis of NAD+ and Carbohydrate Metabolites in A2780 Cancer Cells", "assay_type": "cell-based", "conditions": "A2780 cells, 24 hours", "experimental": "The purpose of this assay is to measure effects of NAMPT inhibitors on NAD^+ formation in cancer cells. LC-MS analysis of NAD^+ metabolites: nicotinamide mononucleotide (NMN), NAD^+, reduced nicotinamide adenine dinucleotide (NADH), and nicotinamide adenine dinucleotide phosphate (NADP) is performed on an HPLC system coupled to a Thermo Quantum Ultra triple quadrupole mass spectrometer operated in positive heated electrospray mode with selected reaction monitoring detection. For cell extracts, 50 μL of extract and 10 μL of 10 μM internal standard (IS) solution is transferred to a 96-well plate, dried under nitrogen and reconstituted in 50 μL of water. For tissue extracts, 20 μL of extract and 10 μL of IS solution are dried and reconstituted in 50 μL water. The IS solution contains 10 μM nicotinamide-d4 (C/D/N Isotopes), nicotinic acid-d4 (C/D/N Isotopes), nicotinamide mononucleotide-d4 (prepared by custom synthesis) and nicotinamide 1,N^6-ethenoadenine dinucleotide in methanol. The metabolites are separated on a Waters XBRIDGE™ Amide (2.1×50 mm, 3 μm) with an injection volume of 10 μL and a flow rate of 1 mL/minute using 10 mM ammonium acetate in 95% acetonitrile for mobile phase A and 10 mM ammonium acetate in 50% acetonitrile for mobile phase B. The gradient is as follows: 0 minutes, 0% B; 2.5 minutes, 70% B; 2.51 minutes, 100% B; 2.8 minutes, 100% B; 2.81 minutes, 0% B, 3.6 minutes, 0% B.\nThe purpose of this assay is to measure effects of NAMPT inhibitors on the levels of metabolites such as glucose-6-phosphate/fructose-6-phosphate/fructose-1-phosphate collectively as hexose phosphate (HP), fructose-1,6-bisphosphate (FBP), glyceraldehyde-3-phosphate (G3P), dihydroxyacetone phosphate (DHAP), 3-phosphoglycerate (3PG), 2-phosphoglycerate (2PG), phosphoenoylpyruvate (PEP), gluconate-6-phosphate (GN6P), xylulose-5-phosphate (X5P), ribulose-5-phosphate (Ru5P), ribose-5-phosphate (R5P), sedoheptulose-7-phosphate/sedoheptulose-1-phosphate collectively as sedoheptulose phosphate (SP), erythrose-4-phosphate (E4P), and α-ketoglutarate (α-KG) derived from glycolysis, the TCA cycle, and the pentose-phosphate pathway in tumor cells. Cells (50,000/well) are grown as described above in 100 μL of Dulbecco's Modified Eagle Medium supplemented with 10% FBS (dialyzed) and 25 mM glucose, and treated with a compound in triplicates in the presence or absence of 10 μM nicotinic acid. After 24 hours of treatment, the growth medium is removed and 200 μL of 80% methanol is added to each well. After incubation at room temperature for 15 minutes, the resulting extracts are transferred to 96-deep-well plates and washed twice with 200 μL of 80% methanol/water. Then, the plates are heat sealed and stored at −80° C., or dried and reconstituted in 100 μL of 25 μM ethylenediaminetetraacetic acid and injected into LC-MS for analysis.\nThe LC-MS analysis for carbohydrate metabolites is performed as follows. Chromatographic separations are performed with an HPLC system, which is coupled to an AB Sciex triple quadrupole LC-MS mass spectrometer. Analytes with phosphates are analyzed as follows. The samples are dried and reconstituted in ACN/water solutions and are separated on a Phenomenex Luna amino HPLC column (2.1×30 mm 3 μm) under the conditions as described by Yuan et al. (Nature Protocols, 2012, […], 872-881.). The mass spectrometer is operated under negative ESI MRM mode."}
{"smiles": "COCCS(=O)(=O)Nc1ccc2c(c1)CCN(C(=O)COc1cccnc1)C2", "note": "[Example 2, 2-Methoxy-N-[2-[2-(3-pyridyloxy)acetyl]-3,4-dihydro-1H-isoquinolin-6-yl]ethanesulfonamide]", "values": [{"measurement": "Metabolite Levels (μM) DHAP", "setting": "compound 0.000508 μM", "value": 0.5, "unit": "µM"}, {"measurement": "Metabolite Levels (μM) FBP", "setting": "compound 0.000508 μM", "value": 1.4, "unit": "µM"}, {"measurement": "Metabolite Levels (μM) HP", "setting": "compound 0.000508 μM", "value": 1.6, "unit": "µM"}, {"measurement": "Metabolite Levels (μM) NAD", "setting": "compound 0.000508 μM", "value": 0.527, "unit": "µM"}, {"measurement": "Metabolite Levels (μM) SP", "setting": "compound 0.000508 μM", "value": 0.2, "unit": "µM"}, {"measurement": "Metabolite Levels (μM) DHAP", "setting": "compound 0.00152 μM", "value": 0.9, "unit": "µM"}, {"measurement": "Metabolite Levels (μM) FBP", "setting": "compound 0.00152 μM", "value": 1.8, "unit": "µM"}, {"measurement": "Metabolite Levels (μM) HP", "setting": "compound 0.00152 μM", "value": 1.6, "unit": "µM"}, {"measurement": "Metabolite Levels (μM) NAD", "setting": "compound 0.00152 μM", "value": 0.457, "unit": "µM"}, {"measurement": "Metabolite Levels (μM) SP", "setting": "compound 0.00152 μM", "value": 0.2, "unit": "µM"}, {"measurement": "Metabolite Levels (μM) DHAP", "setting": "compound 0.00457 μM", "value": 3.2, "unit": "µM"}, {"measurement": "Metabolite Levels (μM) FBP", "setting": "compound 0.00457 μM", "value": 2.2, "unit": "µM"}, {"measurement": "Metabolite Levels (μM) HP", "setting": "compound 0.00457 μM", "value": 1.6, "unit": "µM"}, {"measurement": "Metabolite Levels (μM) NAD", "setting": "compound 0.00457 μM", "value": 0.255, "unit": "µM"}, {"measurement": "Metabolite Levels (μM) SP", "setting": "compound 0.00457 μM", "value": 0.2, "unit": "µM"}, {"measurement": "Metabolite Levels (μM) DHAP", "setting": "compound 0.0137 μM", "value": 6.3, "unit": "µM"}, {"measurement": "Metabolite Levels (μM) FBP", "setting": "compound 0.0137 μM", "value": 3.2, "unit": "µM"}, {"measurement": "Metabolite Levels (μM) HP", "setting": "compound 0.0137 μM", "value": 1.9, "unit": "µM"}, {"measurement": "Metabolite Levels (μM) NAD", "setting": "compound 0.0137 μM", "value": 0.087, "unit": "µM"}, {"measurement": "Metabolite Levels (μM) SP", "setting": "compound 0.0137 μM", "value": 0.3, "unit": "µM"}, {"measurement": "Metabolite Levels (μM) DHAP", "setting": "compound 0.0412 μM", "value": 6.5, "unit": "µM"}, {"measurement": "Metabolite Levels (μM) FBP", "setting": "compound 0.0412 μM", "value": 6.4, "unit": "µM"}, {"measurement": "Metabolite Levels (μM) HP", "setting": "compound 0.0412 μM", "value": 2.8, "unit": "µM"}, {"measurement": "Metabolite Levels (μM) NAD", "setting": "compound 0.0412 μM", "value": 0.039, "unit": "µM"}, {"measurement": "Metabolite Levels (μM) SP", "setting": "compound 0.0412 μM", "value": 0.5, "unit": "µM"}, {"measurement": "Metabolite Levels (μM) DHAP", "setting": "compound 0.123 μM", "value": 7.1, "unit": "µM"}, {"measurement": "Metabolite Levels (μM) FBP", "setting": "compound 0.123 μM", "value": 15.5, "unit": "µM"}, {"measurement": "Metabolite Levels (μM) HP", "setting": "compound 0.123 μM", "value": 7.2, "unit": "µM"}, {"measurement": "Metabolite Levels (μM) NAD", "setting": "compound 0.123 μM", "value": 0.023, "unit": "µM"}, {"measurement": "Metabolite Levels (μM) SP", "setting": "compound 0.123 μM", "value": 1.3, "unit": "µM"}, {"measurement": "Metabolite Levels (μM) DHAP", "setting": "compound 0.37 μM", "value": 7.1, "unit": "µM"}, {"measurement": "Metabolite Levels (μM) FBP", "setting": "compound 0.37 μM", "value": 22.8, "unit": "µM"}, {"measurement": "Metabolite Levels (μM) HP", "setting": "compound 0.37 μM", "value": 11.0, "unit": "µM"}, {"measurement": "Metabolite Levels (μM) NAD", "setting": "compound 0.37 μM", "value": 0.022, "unit": "µM"}, {"measurement": "Metabolite Levels (μM) SP", "setting": "compound 0.37 μM", "value": 2.2, "unit": "µM"}, {"measurement": "Metabolite Levels (μM) DHAP", "setting": "compound 1.111 μM", "value": 7.3, "unit": "µM"}, {"measurement": "Metabolite Levels (μM) FBP", "setting": "compound 1.111 μM", "value": 24.1, "unit": "µM"}, {"measurement": "Metabolite Levels (μM) HP", "setting": "compound 1.111 μM", "value": 11.8, "unit": "µM"}, {"measurement": "Metabolite Levels (μM) NAD", "setting": "compound 1.111 μM", "value": 0.017, "unit": "µM"}, {"measurement": "Metabolite Levels (μM) SP", "setting": "compound 1.111 μM", "value": 2.5, "unit": "µM"}, {"measurement": "Metabolite Levels (μM) DHAP", "setting": "compound 3.333 μM", "value": 7.6, "unit": "µM"}, {"measurement": "Metabolite Levels (μM) FBP", "setting": "compound 3.333 μM", "value": 23.4, "unit": "µM"}, {"measurement": "Metabolite Levels (μM) HP", "setting": "compound 3.333 μM", "value": 12.8, "unit": "µM"}, {"measurement": "Metabolite Levels (μM) NAD", "setting": "compound 3.333 μM", "value": 0.02, "unit": "µM"}, {"measurement": "Metabolite Levels (μM) SP", "setting": "compound 3.333 μM", "value": 2.5, "unit": "µM"}, {"measurement": "Metabolite Levels (μM) DHAP", "setting": "compound 10 μM", "value": 7.7, "unit": "µM"}, {"measurement": "Metabolite Levels (μM) FBP", "setting": "compound 10 μM", "value": 21.5, "unit": "µM"}, {"measurement": "Metabolite Levels (μM) HP", "setting": "compound 10 μM", "value": 10.9, "unit": "µM"}, {"measurement": "Metabolite Levels (μM) NAD", "setting": "compound 10 μM", "value": 0.02, "unit": "µM"}, {"measurement": "Metabolite Levels (μM) SP", "setting": "compound 10 μM", "value": 2.1, "unit": "µM"}]}
